The text below walks through data of patent US6676946B2 (priority 1997, dated 2004).

Entries after “also recorded” stand apart in the source; their conditions may differ.

The test system of test [1] is T cell hybridomas 45G10 (specific for 103-115 poliovirus peptide). The format is cell-based.
The test system of test [2] is MLS 128 (IgG) anti-Tn monoclonal antibody. It counts as binding, mouse.
The test system of test [3] is T cell hybridoma 45G10 specific for PV. It counts as cell-based.
For test [4], the system named is lymph node (LN) cells. Further details: species or system BALB/c mice. The settings on record: mouse, in vivo, sc.
The test system of test [5] is STTG6K(Biot)G peptide. Further details: species or system BALB/c mice. The following applies: mouse, in vivo.
Test [6] concerns Tn3G6K(Biot)G glycopeptide. The arrangement: species or system BALB/c mice. The following applies: mouse, in vivo.
Test [7] has as its system Tn antigen (BT-TT1). Further details: species or system BALB/c mice. The following applies: mouse, in vivo.
Test [8] relates to MLS128 mAb. The format is binding, mouse.
Test [9] relates to human Jurkat tumor cell line. The settings on record: in vivo.

Consider αGalNac-Ser [B], for which the “stimulation of IL-2 production by the T hybridoma” value in test [1] is “do not stimulate”.

As for KLFAVWKITYKDT [PV, reference compound], in test [2], the “recognition of the Tn motif by the MLS 128 mAb, direct ELISA” value (“recognition of the Tn motif” below) is “are not”. The “stimulation of the 45G10 T cell hybrid” value in test [3] is listed as “stimulate”. For the same substance, in [1], the “recognition by PV-specific T-cell hybridoma” value is “recognize”. In addition, the “proliferative T response specific for the T epitope” value in [4] is recorded as “induce in vivo a proliferative T response”. Further, the “sera binding to unglycosylated STTG6K(Biot)G peptide” value in [5] is given as “No sera binding was observed”. In addition, the “anti-Tn IgG antibodies” value in test [6] is listed as “no Tn specific antibodies were detected”. The “induction of anti-Tn antibodies” value in [7] was “not”.

For S*T*T*QYIKANSKIGITEL [Tn3-TT], in test [2], the “recognition of the Tn motif” value is reported as “efficiently recognized”. Further, in [8], the “inhibition of MLS128 binding to Tn3G6K(Biot)G” value is listed as “only slightly affected”.

On to “STTGGGGGGKG [STTG6KG, reference compound]”, for which, in [8], the “competition with a-OSM for MLS 128 binding” value is on record as “does not”.

For the substance (S*T*T*G)2KLFAVWKITYKDT [Tn6-PV], the “recognition of the Tn motif” value in test [2] is “efficiently recognized”. In test [3], the “increase of antigenicity of the T cell epitope compared to unglycosylated PV peptide” value is reported as roughly 100 fold and the “stimulation of the 45G10 T cell hybrid” value is recorded as “stimulate”. Moreover, the “sera binding to unglycosylated STTG6K(Biot)G peptide” value in [5] is “No sera binding was observed”. In addition, in [6], the “anti-Tn IgG antibodies” value is “induced anti-Tn IgG antibodies” and the “anti-Tn IgM antibodies” value is on record as “detected”. In [9], the “binding of sera to Jurkat cells” value was “bound this human cell line” and the “recognition of Jurkat cells / antibody production relative to Tn3-PV” value is on record as “better; also recorded: significant benefit”. Moreover, in [8], the “inhibition of MLS128 binding to Tn3G6K(Biot)G” value was “significant enhancement of the antigenicity”.
